Tested on: isolated gastric fundic gland
Test: CAP: Acid Secretion Inhibition Test In Vitro ([14C]-aminopyrine uptake)
Type: cell-based, rabbit (male Japanese White)
Conditions: Oryctolagus cuniculus; final concentration 10^-5 M; histamine 10^-5 M; rabbit gastric fundic glands; read-out: CAP acid secretion inhibitory rate
Procedure: CAP: Acid Secretion Inhibition Test In Vitro
The acid secretion inhibitory activity in a cell level is studied. It can also be used for studying the mechanism of the effect. […]
ii-a) Preparation of Isolated Gastric Fundus Gland Suspension
First, an isolated gastric fundic gland sample was prepared. Namely, a male Japanese White rabbit (2.5 to 3 kg) was anesthetized to death with Nembutal™ and then the abdomen was incised. Immediately thereafter, the stomach was removed and, after its pyloric and cardiac antrum were severed, incised along its greater curvature into two sheets. The gastric contents adhering to the mucosal surface was washed out with ice-cooled PBS (-) and then carefully washed therein. The gastric wall was spread on a cork board with its mucosal surface facing up and the feed and mucus thereon were completely removed with sterile gauze. The mucosa was separated therefrom by a spatula and then collected in ice-cooled PBS (-). After being washed twice with PBS (-), the mucosa was minced into 2-3 mm^3 pieces by scissors. These pieces were further washed twice with a nutrient solution. […] Into 70 ml of the nutrient solution containing 1 mg/ml of collagenase, minced mucosal pieces were dispersed and intensely stirred in a conical flask with a stirrer at 37° C. for 40 to 60 minutes. During this period, 100% O2 was sprayed on the nutrient solution surface and the pH was appropriately measured such that it was immediately adjusted to pH 7.4, when the value was therebelow, with a base. The nutrient solution was added to the reaction solution so as to attain the total amount of about 200 ml. After being filtered through a mesh, the suspension was divisionally introduced into 50 ml centrifuge tubes and left for 15 minutes such that gastric fundic gland was deposited. The supernatant was repeatedly removed by an aspirator, dispersed in the nutrient solution, and then left such that the gastric fundic gland was washed three times. At this time, without using a pipette, the suspension was alternately introduced into two centrifuge tubes so as to effect dispersion. The number of cells was counted under microscope and adjusted to 1.6×10^6 cells/ml. […]
ii-b) [^14 C]-aminopyrine Uptake Test
Then, [^14 C]-aminopyrine uptake test was performed. After an Eppendorf tube was weighed, 10 μl (final concentration: 10^-5 M) of histamine dissolved in the above-mentioned nutrient solution, 10 μl (final concentration: 10^-5 M) of the test compound dissolved in DMSO, and 10 μl (final concentration: 0.05 μCi/ml) of [^14 C]-aminopyrine diluted with the nutrient solution were introduced therein and then 970 μl of the isolated gastric fundic gland suspension prepared above was added thereto. […] After being centrifuged for 30 minutes, 200 μl of its supernatant was collected into a mini-vial, while the rest was removed by an aspirator. The gland pellet was completely dried as the tube with its lid being opened was kept for one night in a drying oven at 80° C. and then the lid was closed and the weight was determined at room temperature. Then 100 μl of 1N KOH was added thereto and the tube with its lid being closed was treated at 60° C. for 1 to 2 hours so as to dissolve the pellet. Then, the contents thereof were transferred to a mini-vial. Into the mini-vial containing the supernatant or gland pellet, 4 ml of Atomlite™ was added and then the radioactivity was measured by a liquid scintillation counter. Here, after the radioactivity of the gland pellet was corrected by using a sample in which 20 mM of NaSCN was added so as to cancel the hydrogen ion concentration gradient, the integration ratio of aminopyrine specifically trapped by the gland pellet was calculated. This experiment was performed in duplicate. […]
ii-c) Calculation of the Accumulation Rate of Aminopyrine
Here, its principle will be briefly explained. In the isolated gastric fundic gland, acid is accumulated in a space between its secretory tubule and intraglandular cavity.

With `CC(C)=CCC/C(C)=C/COc1ccc(C(=O)N2CCN(CCNC(=O)c3ccc4c(c3)OCO4)CC2)cc1` [Example 1, 1-(4-geranyloxy)benzoyl-4-[2-(piperonyloylamino)ethyl]piperazine] the inhibition at 10 µM was 100%.
